Here are results for two compounds from patent publication US9056140B2, “Pharmaceutical compound” (priority 2007, dated 2015).

The subject of data set [1] is MCF-7 tumors. Put plainly: In vivo anti-tumor activity, MCF-7 tumors in nude female mice. The note with it: i.v. retro-orbital, days 36 and 43. The method, then:
Animals received intravenous treatment via the retro-orbital route on days 36 and 43 post challenge.
Thirty (30) nude female mice (nu/nu), 6-8 weeks old, were challenged subcutaneously with 2×10^7 MCF-7 cells delivered in combination with Matrigel (Becton Dickinson) (200 μl total volume). Weight loss and tumor growth (calculated by taking two perpendicular measurements and applying the formula [Π*((min measurement)/2)^2*(maximum measurement)]) were monitored daily until the end of the study.
Statistical differences were calculated using non-parametric Mann-Whitney assays and considered significant if p<0.05.
Control animals received either PBS or the same doses of raloxine via the same route.
Due to the natural susceptibility of MCF-7 cells to estrogen production, daily tumor volume variation in the nude mice model used follows sinusoidal pattern with a period of approximately 4/5 days (see FIG. 3). The duration of this period correlates with the duration of the oestrus cycle in mice (i.e. 4/5 days). As a result, and in order to facilitate experimental analysis, FIG. 3 represents tumor volume variations for each experimental group both as daily changes and as moving averages (i.e. a trend line) for overlapping 5 day periods (i.e. overlap is 4 days per point).

Data set [2] relates to MCF-7 cells (ER-positive breast cancer cell line). Put plainly: LDH release assay, cell survival of MCF-7 monolayers. The class given is cell-based, human. As to conditions: FIG. 2; saporin 500 nM, raloxifene 1000 nM, alone or as admixture. The method, then: (§1) Cell survival (%) for each cell line is calculated according to a standard lactate dehydrogenase (LDH) release assay, where […] (0% survival) corresponds to cells treated with 50 μg/ml of Mitomycin C and […] (100%) survival corresponds to cells treated only with complete medium.
The MCF-7 cell line (ECACC, catalogue no. 86012803) was isolated from a breast adenocarcinoma in a person and it expresses the estrogen receptor. The cell line was maintained in Minimum Essential Medium (Sigma) supplemented with 2 mM L-Gln (Sigma), 1% Non Essential amino acids (Sigma), 100 IU Penicillin, 100 μg/ml Streptomycin (Sigma) and, as complete medium, 10% Foetal Calf Serum (FCS) (Sigma).
(§2) Cultures of MCF-7, HCC-1143 and OVCAR-3 were harvested at approximately 80% confluency by trypsinisation and after washing once in serum free medium, used to seed Flat bottom 96-well plates (Nunc) with 5×10^3 cells per well in 200 μl of complete medium. […]
(§3) The detection reagent from the CytoTox 96® Non-Radioactive Cytotoxicity Assay kit (Promega) was prepared as per manufacturer's instruction and 50 μl/well of detection reagent was added to all wells. After 30 minutes incubation in the dark at room temperature, the reaction was stopped by adding 50 μl/well of Stop solution to all wells and the absorbance of each well at 490 nm was established.
On the technique in general: LDH leaks from cells whose membrane has failed.

The conditions of data set [3]: cited from earlier work.
Data set [4] relates to HCC-1143 cells (ER-negative breast cancer cell line). Put plainly: LDH release assay, cell survival of HCC-1143 monolayers. The class given is cell-based, human. As to conditions: FIG. 2; raloxifene 1000 nM. The method, then: as §1
The cell line was maintained in RPMI-1640 (Sigma) supplemented with 2 mM L-Gln (Sigma), 10 mM HEPES (Sigma), 1 mM Na-Pyr (Sigma), 100 IU Penicillin, 100 μg/ml Streptomycin (Sigma) and, as complete medium, 10% FCS (Sigma).
Cultures of MCF-7, HCC-1143 and OVCAR-3 were harvested at approximately 80% confluency by trypsinisation and after washing once in serum free medium, used to seed Flat bottom 96-well plates (Nunc) with 5×10^3 cells per well in 200 μl of complete medium.
Following 18 hours incubation at 37° C., the test compounds were removed and 200 μl/well of complete medium added to each well. […]
as §3

The subject of data set [5] is OVCAR-3 cells (ovarian ER positive cell line). Put plainly: LDH release assay, cell survival of OVCAR-3 monolayers. The note with it: FIG. 2; raloxifene 1000 nM. The class given is cell-based, human. The method, then:
as §1
Finally, the NIH:OVCAR-3 cells (ATTC, catalogue no. HTB-161) was isolated from an ovary adenocarcinoma in a person and it expresses the estrogen receptor. The cell line was maintained in RPMI-1640 (Sigma) supplemented with 2 mM L-Gln (Sigma), 10 mM HEPES (Sigma), 1 mM Na-Pyr (Sigma), 0.01 mg/ml Bovine Insulin (Sigma), 100 IU Penicillin, 100 μg/ml Streptomycin (Sigma) and, as complete medium, 20% FCS (Sigma).
as §2, §3

Setting [6] is: patients taking raloxifene daily.

As for `O=C(c1ccc(OCCN2CCCCC2)cc1)c1c(-c2ccc(O)cc2)sc2cc(O)ccc12` [Raloxifene], in data set [1] (peak blood concentration 0.1 nM conjugate or 0.1 ng/ml raloxifene), the “tumor growth compared to PBS control group” value is listed as “did not result in any changes”. In data set [1] (peak blood concentration 0.2 nM conjugate or 0.2 ng/ml raloxifene), the “tumor growth compared to PBS control group” value is “did not result in any changes”. Besides, the “tumor volume / tumor growth” value in data set [1] (peak blood concentration 0.4 nM conjugate or 0.4 ng/ml raloxifene, vs PBS) was “maintenance or slight reduction of tumor size over time”. The “lethal effect on MCF-7 cells” value in data set [2] is on record as “selective significant (p<0.05) effect”. Moreover, the “reducing the incidence of estrogen receptor positive breast cancer” value in data set [3] (clinical trial, vs tamoxifen) was “as effective as tamoxifen”. Further, in data set [3] (setting [6]), the “fewer blood clots than women taking tamoxifen daily” value is recorded as 29% and the “fewer uterine cancers than women taking tamoxifen daily” value was 36%. Moreover, the “lethal effect on HCC-1143 cells” value in data set [4] was “not against”. In addition, in data set [5], the “lethal effect on OVCAR-3 cells” value is “not against”.

Turning to saporin, the “lethal effect on MCF-7 cells” value in data set [2] was “no significant (p>0.05) lethal effect”.
